Laboratory results from patent US20230002346A1, “NEW COMPOUNDS AND METHODS” (BenevolentAl Bio Limited, priority 2019, published 2023).
≈ marks a conversion by molar mass, not a printed value.

What was measured:
hERG channel = biological target: T1, hERG channel (Homo sapiens, UniProt Q12809); experiment: hERG assay (QPatch automated patch clamp, CHO cells); assay type: cell-based; conditions: CHO cells expressing hERG, whole-cell patch clamp, 0.003 μM to 10 μM
T1 construct: expressed in transfected cells
T1 sequence (Q12809 whole entry): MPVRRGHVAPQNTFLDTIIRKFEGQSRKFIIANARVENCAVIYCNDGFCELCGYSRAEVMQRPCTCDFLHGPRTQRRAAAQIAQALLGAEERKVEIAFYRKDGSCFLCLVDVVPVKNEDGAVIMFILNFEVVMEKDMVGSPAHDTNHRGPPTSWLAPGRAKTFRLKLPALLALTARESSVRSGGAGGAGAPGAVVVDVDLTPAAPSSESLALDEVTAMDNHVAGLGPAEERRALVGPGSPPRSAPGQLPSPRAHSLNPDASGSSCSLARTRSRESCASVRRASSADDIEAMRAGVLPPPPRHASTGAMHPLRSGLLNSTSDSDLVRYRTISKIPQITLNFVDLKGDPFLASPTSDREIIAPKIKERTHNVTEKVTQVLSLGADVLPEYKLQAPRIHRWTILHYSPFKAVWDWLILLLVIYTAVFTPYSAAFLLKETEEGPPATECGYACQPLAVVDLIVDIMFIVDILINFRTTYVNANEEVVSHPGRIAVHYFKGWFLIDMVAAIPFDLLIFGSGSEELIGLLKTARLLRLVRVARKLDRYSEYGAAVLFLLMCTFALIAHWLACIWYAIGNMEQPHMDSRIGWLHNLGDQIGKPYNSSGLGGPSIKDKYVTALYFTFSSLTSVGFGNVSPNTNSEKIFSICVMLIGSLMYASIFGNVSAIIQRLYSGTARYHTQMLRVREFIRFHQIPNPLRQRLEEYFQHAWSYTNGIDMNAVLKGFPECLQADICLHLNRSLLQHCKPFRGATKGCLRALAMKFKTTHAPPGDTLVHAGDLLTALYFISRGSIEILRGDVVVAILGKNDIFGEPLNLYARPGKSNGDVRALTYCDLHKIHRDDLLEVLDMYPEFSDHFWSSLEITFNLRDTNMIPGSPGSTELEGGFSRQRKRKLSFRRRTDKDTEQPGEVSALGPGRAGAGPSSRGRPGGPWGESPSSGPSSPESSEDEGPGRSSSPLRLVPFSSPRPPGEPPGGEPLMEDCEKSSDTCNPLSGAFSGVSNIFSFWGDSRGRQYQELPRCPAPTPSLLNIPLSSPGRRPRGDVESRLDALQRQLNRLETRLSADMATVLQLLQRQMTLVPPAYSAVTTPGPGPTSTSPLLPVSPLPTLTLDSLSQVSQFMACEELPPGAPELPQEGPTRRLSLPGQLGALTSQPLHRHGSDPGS
From the text: The human ether-a-go-go related gene (hERG) potassium channel (Kv11.1) contributes to human cardiac action potential repolarisation. Inhibition of hERG channels can prolong the human cardiac action potential, resulting in QTc prolongation and potentially lethal arrhythmias (e.g. Torsade de Pointes).
Test samples were screened against the hERG channel on a QPatch 48 gigaseal automated patch clamp platform, using a Chinese Hamster Ovary (CHO) cell line stably expressing the human ether-á-go-go related gene, which encodes the hERG channel. All recordings were made in the conventional whole-cell configuration and performed at RT ([…]) using standard single hole chips (Rchip 1.5-4M0). Series resistance (4-15Mc) was compensated by >80%. Currents were elicited from a holding potential of −90 mV using the industry standard “^+40/−40” voltage protocol, which was applied at a stimulus frequency of 0.1 Hz. On achieving the whole-cell configuration, vehicle (0.1% DMSO v/v in external recording solution) was applied to each cell in two bolus additions with a 2 min recording period between each addition. Following the vehicle period, eight increasing concentrations of test sample were applied from 0.003 μM to 10 μM as a single bolus addition per test concentration, and the effects on hERG tail current amplitude measured during the 2 min recording period. Each eight-point concentration-response curve was constructed using cumulative single sample additions of each concentration to the same cell. The positive control used in this study was verapamil hydrochloride (Tocris, Cat #0654, Batch #5A/61673) and prepared to a stock concentration of 10 mM in 100% DMSO and kept as frozen aliquots.
Data analysis: All cells passing the QC parameters (i.e. >200 pA outward current, membrane resistance and rundown) are selected as ‘passed QC’ using the QPatch software, which then calculates the mean peak current for the last three sweeps at the end of each concentration application period from the cursor positions defined. Percent inhibition is calculated for each test concentration application period as the reduction in mean cursor value (peak current or charge) relative to the cursor value measured at the end of the control (i.e. vehicle) period. The percent inhibition values from each cell are used to construct concentration-response curves employing a four parametric logistic fit with 0 and 100% inhibition levels fixed at very low and very high concentrations, respectively, and a free Hill slope factor. The IC50 (50% inhibitory concentration) and Hill coefficient are then determined, but only data from cells with Hill slopes within 0.5>nH<2.0 are included. The IC50 data reported below represents the mean (and S.D.) of at least three separate cells (N≥3). […] Compounds of the invention show reduced hERG inhibitory activity compared to the reference examples.

[1] = test system: Salmonella typhimurium, strains TA98 and TA100; experiment: Ames assay (Bacterial Reverse Mutation Test); assay type: cell-based; conditions: TA98 and TA100, presence and absence of S-9 mix, up to 5000 μg/plate
Procedure: Examples 50, 52 and 54 were tested, in vitro, for their ability to induce mutations in 2 histidine dependent auxotrophic mutants of Salmonella typhimurium, strains TA98 and TA100. The mutation screen was conducted using the plate incorporation method and was performed in both the presence and absence of S-9 mix (a liver post-mitochondrial fraction derived from the livers of Aroclor 1254 treated rats). The bacteria were exposed to the test items dissolved in DMSO, which was also the negative Control. The test items were tested up to the regulatory maximum dose level. The dose levels used were 5, 15, 50, 150, 500, 1500 or 5000 μg/plate, unless the highest treatment level of the test items was limited by solubility, or toxicity against the background bacterial lawn. Dose levels were expressed in terms of the free base.
There were no increases of 2-fold or greater in revertant numbers compared with negative Control values in either strain at any dose level in the presence or absence of S-9 mix, so Examples 50, 52 and 54 were not mutagenic in the Bacterial Reverse Mutation (i.e. Ames) Test under the conditions of this screen.

[2] = test system: 87 targets across GPCRs, ion channels, and enzymes; experiment: Eurofins SafetyScreen panel; conditions: top concentration of 10 μM
From the text: Example 50 was screened against the Eurofins SafetyScreen™ panel of 87 targets across GPCRs, ion channels, and enzymes.

[3] = Kinetic aqueous solubility assay; assay type: physicochemical; conditions: aqueous buffer, kinetic from dmso stock, 0.05M potassium phosphate buffer pH 7.4, 250 μM spike, RT
Procedure: Using a 10 mM stock solution of test compound in 100% DMSO, test compounds were spiked into 0.05M potassium phosphate buffer (pH 7.4) at a final concentration of 250 μM. Samples in buffer (n=2 aqueous samples, in 96-well plates) were allowed to equilibrate at RT on an orbital shaker for 30 min (300 rpm) to induce precipitation of test compounds. The appearance of each sample was determined by visual examination and noted (clear, cloudy, precipitate observed etc.). […] The concentration of compound in phosphate buffer filtrate was determined by comparing the UV absorbance peak area of each replicate against that of the calibration standards. […] Compounds of the invention have much improved solubility compared to the reference examples.

[4] = Brain to plasma (B:P) ratio in rat; assay type: in vivo, Sprague Dawley Rats; conditions: male, Sprague Dawley, iv, i.v. 1.5 mg/kg, 3.3% NMP in 30% HPBC in water, timepoints averaged 0.5-1 h
[5] = Brain to plasma (B:P) ratio in rat; assay type: in vivo, Sprague Dawley Rats; conditions: male, Sprague Dawley, po, p.o. 3.0 mg/kg
Procedure: Male Sprague Dawley Rats 300-350 g (Charles River, UK) were group housed, n=3, under a 12 h light/dark cycle with food and water available ad libitum. At 17:00 on the day prior to dosing all food was removed. On the day of dosing animals were weighed, tail marked and dosed via oral gavage with compound at 3 mg/kg in a volume of 5 mL/kg. Animals were culled at 30 min, 1 h and 4 h post dose via intra-peritoneal administration of pentobarbital. Post mortem blood was withdrawn via cardiac puncture, and briefly stored in K2 EDTA blood tubes on ice before being spun at 14,000 g for 4 min at 4° C. Plasma was withdrawn into a 96 well plate, placed on dry ice and stored at −80° C. Brains were quickly dissected and placed on dry ice before storage at −80° C. Bioanalysis of plasma and brain samples is performed as detailed below. Methods were prepared with guidance from industry standard documents.^i,ii […] Calibration lines are prepared in control male Sprague-Dawley Rat plasma at known concentrations in the range of 1-10000 ng/mL by spiking 2.5 μL of calibration spiking solution into 25 μL control plasma. Experimental samples are thawed to RT and 25 μL aliquots are extracted alongside the calibration lines using protein precipitation (agitation for at least 5 min at RT with 400 μL of MeCN containing 25 ng/mL tolbutamide as an internal standard). Protein precipitates are separated from the extracted test compound by centrifugation at 4000 rpm for 5 min, 4° C. […] Samples are analysed by UPLC-MS/MS on either an API6500 QTrap or Waters 30 TQS mass spectrometer using previously optimised analytical MRM (multiple reaction monitoring) methods, specific to the test compound. The concentration of test compound in isolated samples is determined following analysis of the samples against the two replicates of the calibration line, injected before and after the sample set with an appropriate regression and weighting used. Only samples within 20% of the expected test concentration are included in the calibration line and any samples that fall outside of the limits of the calibration line will be deemed to be less than or above the limit of quantification (LLoQ/ALoQ). […] Calibration lines are prepared in control male Sprague-Dawley Rat brain homogenate at known concentrations in the range of 3-30000 ng/g by spiking 2.5 μL of calibration spiking solution into 25 μL control homogenate. To prepare control and experimental brain homogenates, brains are thawed, weighed and a volume of diluent added (water) in the ratio of 2 mL per gram of brain. Homogenisation of brains is performed by bead-beater homogenisation using Precellys Evolution and CK14 7 mL small ceramic bead homogenisation tubes. Aliquots of 25 μL experimental sample are extracted alongside the calibration lines using protein precipitation (agitation for at least 5 min at RT with 400 μL of MeCN containing 25 ng/mL tolbutamide as an internal standard). Protein precipitates are separated from the extracted test compound by centrifugation at 4000 rpm for 5 min, 4° C. […] Samples are analysed by UPLC-MS/MS on either an API6500 QTrap or Waters TQS mass spectrometer using previously optimised analytical MRM (multiple reaction monitoring) methods, specific to the test compound. The concentration of test compound in isolated samples is determined following analysis of the samples against the two replicates of the calibration line, injected before and after the sample set with an appropriate regression and weighting used. Only samples within 20% of the expected test concentration are included in the calibration line and any samples that fall outside of the limits of the calibration line will be deemed to be less than or above the limit of quantification (LLoQ/ALoQ). Total brain to plasma (B:P) ratios were calculated by dividing the concentration in the brain by the concentration in plasma for each timepoint. The mean brain to plasma ratio is calculated by averaging these brain to plasma ratios across certain timepoints. […]

[6] = biological target: T2, Ba/F3 cells expressing BCR-ABL (Homo sapiens, UniProt P00519); experiment: Ba/F3 CellTiter-Glo Assay; assay type: cell-based; conditions: 48 h
T2 construct: BCR (fusion partner); host or cells: Ba/F3 (IL-3 dependent murine pro-B cells); the other entry of the earlier key: BCR (P11274, Breakpoint cluster region protein)
T2 sequence (P00519 28-1130 limits assumed): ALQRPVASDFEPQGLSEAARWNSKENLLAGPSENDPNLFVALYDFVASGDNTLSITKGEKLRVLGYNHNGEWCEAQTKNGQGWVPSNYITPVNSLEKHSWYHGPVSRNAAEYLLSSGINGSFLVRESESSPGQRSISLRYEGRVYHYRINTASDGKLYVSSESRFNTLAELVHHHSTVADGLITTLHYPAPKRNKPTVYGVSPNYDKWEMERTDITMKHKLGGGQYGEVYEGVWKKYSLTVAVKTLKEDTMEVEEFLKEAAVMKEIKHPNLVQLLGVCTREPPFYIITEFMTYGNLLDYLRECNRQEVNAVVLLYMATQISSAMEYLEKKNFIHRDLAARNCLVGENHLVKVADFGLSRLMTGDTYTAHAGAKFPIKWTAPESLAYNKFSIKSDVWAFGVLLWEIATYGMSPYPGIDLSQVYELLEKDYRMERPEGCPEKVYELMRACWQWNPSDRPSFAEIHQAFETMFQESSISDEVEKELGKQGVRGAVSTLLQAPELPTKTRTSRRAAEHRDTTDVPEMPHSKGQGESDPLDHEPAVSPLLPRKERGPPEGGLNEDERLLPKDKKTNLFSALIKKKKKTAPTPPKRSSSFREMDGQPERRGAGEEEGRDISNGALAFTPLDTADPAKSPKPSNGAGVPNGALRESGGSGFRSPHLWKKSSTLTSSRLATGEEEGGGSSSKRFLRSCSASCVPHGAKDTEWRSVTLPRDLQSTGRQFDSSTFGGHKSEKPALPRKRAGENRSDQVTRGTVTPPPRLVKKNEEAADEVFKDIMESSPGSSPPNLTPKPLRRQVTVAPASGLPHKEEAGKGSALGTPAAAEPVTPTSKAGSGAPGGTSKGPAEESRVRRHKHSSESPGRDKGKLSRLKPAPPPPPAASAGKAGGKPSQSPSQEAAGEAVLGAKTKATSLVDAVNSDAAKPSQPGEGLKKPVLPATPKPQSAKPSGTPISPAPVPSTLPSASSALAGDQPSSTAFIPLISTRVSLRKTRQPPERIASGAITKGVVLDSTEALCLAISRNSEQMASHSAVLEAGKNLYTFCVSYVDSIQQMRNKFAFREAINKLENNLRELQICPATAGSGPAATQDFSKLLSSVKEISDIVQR
Procedure: The CellTiter-Glo luminescent cell viability assay is a homogeneous method of determining the number of viable cells in culture based on quantification of the ATP present. Briefly, IL-3 dependent Ba/F3 cells are modified to express BCR-ABL. Activity of the transformed kinase overrides IL3 dependency for cellular proliferation and survival. […] Test compounds were dispensed into 384 well plates using the Tecan D300e at a top final assay concentration of 10 μM with dosing normalised to 0.1% DMSO in 50 μL volume. […] Following a 60 min incubation at RT luminescence was read on the Pherastar FS reader.

[7] = 30% HPBC in water, timepoints averaged 0.5-4 h

| SMILES | IC50 (hERG channel) | solubility at 30 min [3] | also measured |
| --- | --- | --- | --- |
| O=C(Nc1ccc(OC(F)(F)F)cc1)c1ccc(=O)n(-c2cncnc2)c1 [Example 50, 6-Oxo-1-(pyrimidin-5-yl)-N-[4-(trifluoromethoxy)phenyl]-1.6-dihydropyridine-3-carboxamide] | > 10 µM | – | mutagenicity in the Bacterial Reverse Mutation (Ames) Test [1]: not mutagenic; number of 87 targets inhibited >50% [2]: 2; maximum inhibition ([2]; 87 targets): 65% |
| O=C(Nc1ccc(OC(F)(F)Cl)cc1)c1ccc(=O)n(-c2cncnc2)c1 [Example 51, N-[4-(Chlorodifluoromethoxy)phenyl]-6-oxo-1-(pyrimidin-5-yl)-1,6-dihydropyridine-3-carboxamide] | > 10 µM | 190 µM (≈ 74.6 µg/mL) | Kp [4]: 0.67 |
| Cn1cc(-n2cc(C(=O)Nc3ccc(OC(F)(F)Cl)cc3)ccc2=O)cn1 [Example 52, N-[4-[Chloro(difluoro)methoxy]phenyl]-1-(1-methylpyrazol-4-yl)-6-oxo-pyridine-3-carboxamide] | > 10 µM | 160 µM (≈ 63.2 µg/mL) | mutagenicity in the Bacterial Reverse Mutation (Ames) Test [1]: not mutagenic |
| O=C(Nc1ccc(OC(F)(F)Cl)cc1)c1ccc(=O)n(-c2cccnc2)c1 [Example 53, N-[4-[Chloro(difluoro)methoxy]phenyl]-6-oxo-1-(3-pyridyl)pyridine-3-carboxamide] | > 10 µM | 170 µM (≈ 66.6 µg/mL) | Kp ([5]; 5% NMP in 30% HPBC in water, timepoints averaged 0.5-1 h): 0.82 |
| COc1cncc(-n2cc(C(=O)Nc3ccc(OC(F)(F)Cl)cc3)ccc2=O)c1 [Example 61, N-[4-[Chloro(difluoro)methoxy]phenyl]-1-(5-methoxy-3-pyridyl)-6-oxo-pyridine-3-carboxamide] | > 10 µM | 160 µM (≈ 67.5 µg/mL) | Kp [5, 7]: 0.45 |
| O=C(Nc1ccc(OC(F)(F)Cl)cc1)c1ccc(=O)n(-c2cncc(Cl)c2)c1 [Example 63, N-[4-[Chloro(difluoro)methoxy]phenyl]-1-(5-chloro-3-pyridyl)-6-oxo-pyridine-3-carboxamide] | > 10 µM | 120 µM (≈ 51.1 µg/mL) | Kp [5, 7]: 0.64 |
| O=C(Nc1ccc(OC(F)(F)Cl)cc1)c1ccc(=O)n(-c2ccc[n+]([O-])c2)c1 [Example 78, 5-{[4-(Chlorodifluoromethoxy)phenyl]carbamoyl}-2-oxo-2H-[1.3′-bipyridin]-1′-ium-1′-olate] | – | 150 µM (≈ 61.2 µg/mL) | IC50 [6]: 151 to 1000 nM |
| Cn1cc(-n2cc(C(=O)Nc3ccc(OC(F)(F)Cl)cc3)cc(C#N)c2=O)cn1 [Example 79, N-[4-(Chlorodifluoromethoxy)phenyl]-5-cyano-1-(1-methyl-1H-pyrazol-4-yl)-6-oxo-1.6-dihydropyridine-3-carboxamide] | – | – | IC50 [6]: 151 to 1000 nM |
